Test results: the NIST ThermoML archive (doi:10.1016/j.jct.2005.02.004)

Test: mn = molality of the nth substance listed, in mol/kg
Conditions: Liquid, Vibrating tube method

[Br-].[Br-].[Zn+2] [zinc bromide] + CO
Conditions | mass density [kg/m3]
298.27 K, 175 kPa, m1 = 0.7158 | 902.32
298.27 K, 206 kPa, m1 = 0.3785 | 853.39
298.27 K, 206 kPa, m1 = 1.951 | 1072.66
298.27 K, 4983 kPa, m1 = 1.951 | 1077.46
298.27 K, 4990 kPa, m1 = 0.3785 | 858.17
298.27 K, 4998 kPa, m1 = 0.7158 | 907.05
298.27 K, 9995 kPa, m1 = 1.951 | 1082.31
298.27 K, 10009 kPa, m1 = 0.7158 | 911.75
298.27 K, 10013 kPa, m1 = 0.3785 | 862.94
298.27 K, 14985 kPa, m1 = 0.7158 | 916.21
298.27 K, 14995 kPa, m1 = 0.3785 | 867.44
298.27 K, 15001 kPa, m1 = 1.951 | 1087.02
298.27 K, 19983 kPa, m1 = 1.951 | 1091.45
298.27 K, 19984 kPa, m1 = 0.3785 | 871.75
298.27 K, 19989 kPa, m1 = 0.7158 | 920.51
298.27 K, 24990 kPa, m1 = 1.951 | 1095.81
298.27 K, 25018 kPa, m1 = 0.3785 | 875.78
298.27 K, 25019 kPa, m1 = 0.7158 | 924.66
298.27 K, 29988 kPa, m1 = 0.3785 | 879.71
298.27 K, 29996 kPa, m1 = 1.951 | 1100.02
298.27 K, 34982 kPa, m1 = 0.3785 | 883.51
298.27 K, 34985 kPa, m1 = 0.7158 | 932.44
298.27 K, 34998 kPa, m1 = 1.951 | 1104.11
298.27 K, 35000 kPa, m1 = 0.7158 | 932.43
298.27 K, 39992 kPa, m1 = 0.7158 | 936.16
298.27 K, 40008 kPa, m1 = 0.3785 | 887.18
298.27 K, 40010 kPa, m1 = 1.951 | 1108.09
298.28 K, 200 kPa, m1 = 0.05772 | 797.74
298.28 K, 4999 kPa, m1 = 0.05772 | 802.42
298.28 K, 9984 kPa, m1 = 0.05772 | 807.04
298.28 K, 14988 kPa, m1 = 0.05772 | 811.39
298.28 K, 19994 kPa, m1 = 0.05772 | 815.58
298.28 K, 24988 kPa, m1 = 0.05772 | 819.58
298.28 K, 29998 kPa, m1 = 0.05772 | 823.42
298.28 K, 34981 kPa, m1 = 0.05772 | 827.09
298.28 K, 40008 kPa, m1 = 0.05772 | 830.66
323.22 K, 212 kPa, m1 = 0.7158 | 876.52
323.22 K, 228 kPa, m1 = 0.3785 | 828.32
323.22 K, 230 kPa, m1 = 0.05772 | 773.97
323.22 K, 245 kPa, m1 = 1.951 | 1042.34
323.22 K, 4983 kPa, m1 = 0.3785 | 833.75
323.22 K, 4994 kPa, m1 = 0.05772 | 779.33
323.22 K, 5004 kPa, m1 = 1.951 | 1047.72
323.22 K, 5010 kPa, m1 = 0.7158 | 881.93
323.22 K, 9982 kPa, m1 = 1.951 | 1053.09
323.22 K, 9993 kPa, m1 = 0.3785 | 839.12
323.22 K, 9999 kPa, m1 = 0.7158 | 887.26
323.22 K, 10015 kPa, m1 = 0.05772 | 784.65
323.22 K, 14987 kPa, m1 = 1.951 | 1058.26
323.22 K, 14997 kPa, m1 = 0.05772 | 789.6
323.22 K, 14997 kPa, m1 = 0.3785 | 844.21
323.22 K, 15018 kPa, m1 = 0.7158 | 892.34
323.22 K, 19990 kPa, m1 = 0.3785 | 849.04
323.22 K, 19994 kPa, m1 = 0.7158 | 897.14
323.22 K, 20007 kPa, m1 = 0.05772 | 794.31
323.22 K, 20009 kPa, m1 = 1.951 | 1063.24
323.22 K, 24981 kPa, m1 = 0.7158 | 901.73
323.22 K, 24985 kPa, m1 = 0.05772 | 798.77
323.22 K, 24994 kPa, m1 = 0.3785 | 853.6
323.22 K, 24998 kPa, m1 = 1.951 | 1068
323.22 K, 29987 kPa, m1 = 0.7158 | 906.15
323.22 K, 29997 kPa, m1 = 1.951 | 1072.61
323.22 K, 30012 kPa, m1 = 0.05772 | 803.09
323.22 K, 30016 kPa, m1 = 0.3785 | 857.92
323.22 K, 34994 kPa, m1 = 0.7158 | 910.38
323.22 K, 34996 kPa, m1 = 0.05772 | 807.14
323.22 K, 34997 kPa, m1 = 0.3785 | 862.1
323.22 K, 35003 kPa, m1 = 1.951 | 1077.08
323.22 K, 39988 kPa, m1 = 0.3785 | 866.11
323.22 K, 39997 kPa, m1 = 0.7158 | 914.47
323.22 K, 39998 kPa, m1 = 0.05772 | 811.05
323.22 K, 40001 kPa, m1 = 1.951 | 1081.4
348.23 K, 311 kPa, m1 = 0.3785 | 802.57
348.23 K, 316 kPa, m1 = 0.7158 | 850.07
348.23 K, 4989 kPa, m1 = 0.7158 | 856.15
348.23 K, 5006 kPa, m1 = 0.3785 | 808.74
348.23 K, 9999 kPa, m1 = 0.3785 | 814.86
348.23 K, 10009 kPa, m1 = 0.7158 | 862.27
348.23 K, 14998 kPa, m1 = 0.7158 | 868
348.23 K, 15007 kPa, m1 = 0.3785 | 820.6
348.23 K, 19987 kPa, m1 = 0.3785 | 825.97
348.23 K, 19998 kPa, m1 = 0.7158 | 873.4
348.23 K, 24998 kPa, m1 = 0.3785 | 831.08
348.23 K, 25006 kPa, m1 = 0.7158 | 878.54
348.23 K, 29987 kPa, m1 = 0.7158 | 883.42
348.23 K, 29988 kPa, m1 = 0.3785 | 835.92
348.23 K, 34986 kPa, m1 = 0.7158 | 888.06
348.23 K, 35004 kPa, m1 = 0.3785 | 840.55
348.23 K, 40002 kPa, m1 = 0.7158 | 892.55
348.23 K, 40007 kPa, m1 = 0.3785 | 844.98
